Measured values taken from patent US11819540B2, “Methods for treating and preventing neutrophil-derived net toxicity and thrombosis” (CHILDREN'S MEDICAL CENTER CORPORATION, priority 2011, dated 2023).

What was measured:
[1] = tested on: platelets; assay: Platelet aggregation (light transmission) with histones; assay type: cell-based, human; conditions: EDTA 5 mM; heparin
Text: (§1) For FIGS. 2A and 2B data are presented as mean±SEM, n=3; (Student's t test; *P<0.05; **P<0.01). […] A second band (arrowhead) may represent cross reactivity of the antibody or a proteolytic product. Data presented are representative of three independent experiments. FIG. 2D is a graph of the degree of aggregation of platelets treated with thrombin (open circles), human recombinant histone H3 (solid circles), EDTA (solid squares), and heparin (solid triangles). […] FIG. 2E is a graph of the degree of aggregation of platelets 3 minutes after addition of various histones or throbmin (Thr). […] (ANOVA; ***P<0.001 compared with histone H1).
The possibility of a direct interaction between platelets and histones was examined. […] Thrombin (0.5 U/mL; open circles in FIG. 2D) and […] served as a positive control in these experiments. Aggregation in response to histone H3 (FIG. 2D) and H4 (data not shown) was inhibited by EDTA (5 mM; solid squares in FIG. 2D) which excluded platelet agglutination caused by the positive charge of histones. […] Dissociating NETs and inhibiting histones could add to the antithrombotic effects of heparin.

[2] = tested on: blood clots (fibrin and NET scaffold); assay: Clot formation in recalcified blood with or without PAF-activated neutrophils (thrombolysis); assay type: cell-based, human; conditions: tPA 25 μg/mL, DNase 100 U/mL
Experimental: Fibrin polymerization was induced in blood by recalcification and incubated either in the absence (medium) or presence of neutrophils preactivated by PAF to induce NET formation (neutrophils+PAF). Samples were treated with DNase to digest extracellular traps or tPA for fibrin digestion. […] (Scale bar, 1 cm.) The graph presents quantification of the clots by weighing. […] Data are presented as mean±SEM, n=4; (ANOVA; ***P<0.001). The first bar in each x-axis category represents the untreated samples, the second bar represents the samples treated with DNase, the third bar represents the samples treated with tPA, and the fourth bar represents the samples treated with tPA and DNase.
The relative susceptibility of NETs and fibrin to serve as scaffolds for blood clots to thrombolysis was examined (FIG. 20). Neutrophils were prestimulated with platelet-activating factor to release NETs with recalcified blood under stirring conditions. Two-hundred-fifty microliters of 5×10^6 neutrophils per milliliter in RPMI medium were activated by platelet activating factor (50 μM Calbiochem) at 37° C. under static conditions to induce NET formation. Control samples were 250 μL medium alone, 250 μL of unstimulated neutrophils, or 250 μL of 50 μM PAF in medium. After 10 min, 250 μL of recalcified (40 mM CaCl2) ACD anticoagulated blood was added. […] Images were acquired and the clot was determined. […]

[3] = tested on: NETs; assay: Incubation of NETs under static conditions, immunodetection of released histone H2B; assay type: cell-based, human
Text: as §1
The effect of heparin was also observed in medium, indicating a direct interaction of heparin with the NETs. Heparin has high affinity for histones (Pal et al., Thromb Res 1983 31:69-79) and releases histones from chromatin (Napirei et al. FEBS J 2009 276:1059-1073).

[4] = tested on: NETs; assay: Binding of plasma VWF, fibronectin and fibrinogen to NETs; assay type: cell-based, human; conditions: DNaseI 100 U/mL, 10 min after plasma incubation
Experimental: FIGS. 19A-19C depict graphs of the binding of von Willebrand factor (VWF), fibronectin, and fibrinogen to neutrophil extracellular traps (NETs). Human NETs were incubated with human plasma for 30 min, washed, and stained for VWF (19A), fibronectin (19B), or fibrinogen (19C). […] Data are presented as mean±SEM, n=3; (Student's t test); **P<0.01; ***P<0.001.
Whether NETs can concentrate plasma proteins that promote and stabilize thrombi (Frenette and Wagener NEJM 1996 335:43-5) was determined. […] After the activation, NETs were incubated with 1% BSA for 1 h at 37° C. NETs were washed and incubated with 50% plasma in PBS for 30 min at 37° C. Next, NETs were washed and treated with DNaseI (100 U/mL, 10 min). After another wash, cells were fixed with paraformaldehyde (2%, 1 h at 37° C.) and unspecific binding sites were blocked with BSA (3%, 1 h at 37° C.). Primary antibodies were used at 1 μg/mL in PBS supplemented with 1% BSA and 0.1% Triton×100 [mouse-antifibrinogen, rabbit-antifibronectin (both Sigma); rabbit-anti-VWF, (Chemicon)]. After incubation at 37° C. for 1 h, samples were washed with PBS and fluorescently conjugated secondary antibodies (Invitrogen) were applied at 10 μg/mL for 30 min at 37° C. […] The interaction of fibrinogen with NETs and its ability to promote fibrin deposition was determined. […]

[5] = tested on: NETs; assay: Perfusion of blood over NETs in a flow chamber; assay type: cell-based, human
Experimental: The interaction between NETs and blood was studied using NETs isolated from human neutrophils. Blood samples were obtained from healthy donors who had not taken any medication for at least 10 day. Platelets and neutrophils were prepared from ACD-blood (Brill A, et al. Cardiovasc Res 2009 84(1):137-144) or EDTA-blood (Fuchs et al., J Cell Biol 2007 176:231-241), respectively. Neutrophils were seeded into flow chambers (μ-Slide IV, IBIDI) at 0.5 to 1×10^7 cells/mL. NET formation by the majority of cells was induced by phorbol 12-myristate 13-acetate (PMA, 50 nM, 4 h; Sigma Aldrich) or glucose oxidase (GO, 1 U/mL, 4 h; Worthington Biochem), as previously described (Brill A, et al. Cardiovasc Res 2009 84(1):137-144). PMA-induced NETs were used for initial observations. Other experiments were done with GO-induced NETs. NETs were washed and blocked with 1% BSA (Calbiochem). NET-DNA was stained with 1 μg/mL Hoechst 33258 (Invitrogen) for 15 min at 37° C. or SytoxGreen (1 μM, Invitrogen). Washed platelets were loaded with fluorescent Calcein-AM (2.5 μg/mL, 10 min, 37° C.; Invitrogen) or platelets in whole blood were labeled with Rhodamine 6G (5 μg/mL, 10 min, 37° C.; Sigma). Fluorescent images were acquired by a Zeiss Axiovert 200 inverted fluorescence microscope in conjunction with a monochrome camera (AxioCam MRm). Colors for fluorescence channels were assigned using Axiovision software. Fluorescent areas in images were quantified using ImageJ software.
(§2) NETs were induced on glass coverslips and perfusion was performed using a parallel-plate flow chamber system (Glycotech). NETs were perfused with platelets suspended in plasma at a shear rate of 200/s or 900/s and 37° C. using a peristaltic pump and observed to be avidly adhering platelets. NETs were washed and fixed with 2.5% glutaraldehyde and electron microscopy was performed. […] NETs were also perfused with ACD-anticoagulated blood supplemented with the irreversible thrombin inhibitor PPACK-Dihydrochloride (100 μM; Calbiochem) and recalcified by addition of 2 mM CaCl2. […] Cells firmly attached to collagen or NETs were lysed with 100 μL of 0.5% Triton×100 in water. Hemoglobin content was measured using the method of Drabkin (Drabkin PNAS 1971 68:609-13). To quantify platelets, Rhodamine-6G fluorescence of the sample was analyzed using a fluorometer.
Strings of NETs aligned in the direction of flow and, importantly, NETs were not a static surface but moved in three dimensions. Within 1 min from onset of perfusion, small platelet aggregates appeared on NETs. Platelet adhesion and aggregation on NETs increased over the next 9 min. […] Both platelet aggregates and NETs were removed by DNase and 10 minutes after the beginning of perfusion (FIGS. 1C and 1D). […] Thus, NETs were the only prothrombotic substrate in these experiments. FIGS. 1C and 1D show data that are representative of at least three independent experiments and are shown as mean±SEM, n=3. AU means arbitrary units.

[6] = tested on: collagen; assay: Perfusion of blood over collagen-coated flow chamber; assay type: cell-based; conditions: blood supplemented with DNase
Experimental: as §2
When NETs were washed after perfusion with blood and observed macroscopically a red thrombus was detectable (FIG. 3A). Shown in FIG. 3A is a flow chamber coated with NETs after perfusion with blood. Light microscopy of a red thrombus (arrow) anchored on two strings (arrowheads). FIG. 3A is a composite of multiple photographs of the flow chamber. (Scale bar, 500 μm). […] RBC adhesion to NETs was prevented when blood was supplemented with DNase, confirming that RBCs were attached to NETs. […]

[7] = blood supplemented with DNase at the beginning of the perfusion

| Compound | platelet aggregation in response to histone H3 and H4 in presence of inhibitor [1] | clot formation ([2]; absence of activated neutrophils (medium)) | clot formation / clot size ([2]; presence of PAF-activated neutrophils) | release of histones (H2B) from NETs [3] | binding of VWF, fibronectin and fibrinogen to NETs [4] | NETs and adherent platelets after DNase addition ([5]; DNase 100 U/mL added 10 min after beginning of perfusion) | RBC adhesion to NETs ([5]; blood supplemented with DNase) | platelet adhesion to NETs ([5]; blood supplemented with DNase) | NETs (NET-DNA area) [5, 7] | platelet aggregates on NETs [5, 7] | platelet adhesion to collagen-coated chambers [6] | platelet aggregates on NETs ([5]; heparin 10 μg/mL) | NETs (NET-DNA) ([5]; heparin 100 μg/mL, perfusion with heparinized blood, 10 min) |
| --- | --- | --- | --- | --- | --- | --- | --- | --- | --- | --- | --- | --- | --- |
| O=C(O)CN(CCN(CC(=O)O)CC(=O)O)CC(=O)O [EDTA, ethylenediaminetetraacetic acid] | inhibited |  |  |  |  |  |  |  |  |  |  |  |  |
| DNase |  | had no effect | did not change | released histones to the culture supernatant | binding to NETs in a DNase-sensitive manner | simultaneously removed NETs and platelets | prevented | prevented platelet adhesion to NETs | NETs were degraded rapidly | platelet aggregates did not form | had no effect |  |  |
| Heparin [reference compound] | completely abolished platelet response to these histones |  |  | released histones to the culture supernatant |  |  |  |  |  |  |  | removed platelet aggregates from NETs | almost completely dismantled NETs |
